What was measured:
[1] = biological target: T1, human EGFR (T790M/L858R) (Homo sapiens, UniProt P00533, L858R/T790M); experiment: EGFR biochemical enzyme assay (HTRF KinEASE TK); settings: 30 μM ATP
T1 construct: with amino acids 696-end containing the T790M and L858R mutations; GST (N); purchased Millipore
Description: The inhibitory activity of a compound against EGFR (T790M/L858R) were determined with CisBio HTRF (homogenous time-resolved fluorescence) KinEASE TK (#62TKOPEC). The enzyme reaction contained recombinant N-terminal GST-tagged human EGFR (T790M/L858R), which phosphorylates the HTRF tyrosine kinase biotinylated substrate.
The sequence of the substrate is proprietary to CisBio. Test compounds were serially diluted in 100% (v/v) DMSO before being acoustically dispensed from an Echo 555 (Labcyte) into black Corning 1536-well assay plates. Kinase activity assays were performed in a total reaction volume of 3 μL per well. A 1.5 μL enzyme reaction consisted of 1.6 nM EGFR ([…], L858R), 1 mM DTT, and 10 mM MgCl2. A 1.5 μL substrate mix consisted of 1 μM TK substrate, 30 μM ATP, 1 mM DTT, and 10 mM MgCl2. Following a 50 mins incubation, 3 μL of stop mix was added, which consisted of 250 nM Strep-XL665 and TK Ab-Cryptate diluted in kit detection buffer. The plates were incubated for 1 h before being read on Pherastar using standard HTRF settings. N-terminal GST-tagged recombinant human EGF receptor, with amino acids 696-end containing the T790M and L858R mutations, was obtained from Millipore.

[2] = system: A431 (WT) cells; experiment: EGFR cell proliferation assay (CellTiter-Glo), A431; assay type: cell-based; settings: Homo sapiens, A-431, 3-5 days
Description: (§1) Cell Lines: A431 (WT), H1975 (L858R/T790M), PC9 (E746-A750 deletion): A431 cells were grown in DMEM (Invitrogen, Carlsbad, Calif.) supplemented with 10% FBS (HyClone, South Logan, Utah) and 1% Penicillin-Streptomycin (P/S, Lonza, Walkersville, Md.). H1975 cells were grown in RPMI 1640 (Invitrogen) supplemented with 10% FBS and 1% P/S. […] PC-9 cells were obtained from Japan. All cells were maintained and propagated as monolayer cultures at 37° C. in a humidified 5% CO2 incubator. All cells were cultured according to recommendations.
(§2) Cell proliferation was measured using the CellTiter-Glo® Luminescent Cell Viability Assay. The assay involved the addition of a single reagent (CellTiter-Glo® Reagent) directly to cells cultured in serum-supplemented medium. The assay used a one-step addition to induce cell lysis and generate a luminescent signal proportional to the amount of ATP present, which is directly proportional to the number of metabolically active cells present in culture.
(§3) Each compound evaluated was prepared as a DMSO stock solution (10 mM). Compounds were tested in duplicate on each plate, with an 11-point serial dilution curve (1:3 dilution). Compound treatment (50 μL) was added from the compound dilution plate to the cell plate. The highest compound concentration was 1 or 10 μM (final), with a 0.3% final DMSO (#D-5879, Sigma, St Louis, Mo.) concentration. Plates were then incubated at 37° C., 5% CO2. After 3-5 days of compound treatment, CellTiter-Glo® Reagent (#G7573, Promega, Madison, Wis.) was prepared in one of two ways. If thawing a frozen aliquot of CellTiter-Glo® Reagent, the aliquot was thawed and equilibrated to RT prior to use while keeping it protected from light. Alternatively, new bottles of CellTiter-Glo® Buffer and CellTiter-Glo® Substrate were thawed and equilibrated to RT prior to use. CellTiter-Glo® Buffer (100 mL) was transferred into the amber bottle containing CellTiter-Glo® Substrate to reconstitute the lyophilized enzyme/substrate mixture, forming the CellTiter-Glo® Reagent. The reconstituted reagent was mixed by gently inverting the contents to obtain a homogeneous solution, and went into solution easily in less than 1 min. Any unused reconstituted CellTiter-Glo® Reagent was immediately aliquoted and frozen at −20° C., and protected from light. Cell plates were equilibrated at RT for approximately 30 mins. An equi-volume amount of CellTiter-Glo® Reagent (100 μL) was added to each well. Plates were mixed for 2 mins on an orbital shaker to induce cell lysis, and then were allowed to incubate at RT for 10 mins to stabilize the luminescent signal. Luminescence was recorded using the PerkinElmer EnVision Excite Multilabel Reader used for endpoint reading for luminescence detection (Waltham, Mass.). Data was analyzed using a four-parameter fit in Microsoft Excel.

[3] = biological target: IGF1R (Homo sapiens, UniProt P08069); experiment: Biochemical enzyme assay, IGF1R
[4] = system: PC9 (E746-A750 deletion) cells; experiment: EGFR cell proliferation assay (CellTiter-Glo), PC9; assay type: cell-based; settings: 3-5 days
Description: as §1, §2, §3

[5] = system: H1975 (L858R/T790M) cells; experiment: EGFR cell proliferation assay (CellTiter-Glo), H1975; assay type: cell-based; settings: Homo sapiens, NCI-H1975, 3-5 days
Description: as §1, §2, §3

[6] = biological target: EGFR Wt (Homo sapiens, UniProt P00533); experiment: EGFR biochemical enzyme assay, Wt
[7] = biological target: T2, EGFR Del-19 (Homo sapiens, UniProt P00533); experiment: EGFR biochemical enzyme assay, Del-19
T2 construct: as on the sister T790M/L858R enzyme

[8] = biological target: EGFR L858R (Homo sapiens, UniProt P00533, L858R); experiment: EGFR biochemical enzyme assay, L858R
[9] = biological target: INSR (Homo sapiens, UniProt P06213); experiment: Biochemical enzyme assay, INSR

T2 sequence (P00533 with tags, fused parts or gaps DEL746-750): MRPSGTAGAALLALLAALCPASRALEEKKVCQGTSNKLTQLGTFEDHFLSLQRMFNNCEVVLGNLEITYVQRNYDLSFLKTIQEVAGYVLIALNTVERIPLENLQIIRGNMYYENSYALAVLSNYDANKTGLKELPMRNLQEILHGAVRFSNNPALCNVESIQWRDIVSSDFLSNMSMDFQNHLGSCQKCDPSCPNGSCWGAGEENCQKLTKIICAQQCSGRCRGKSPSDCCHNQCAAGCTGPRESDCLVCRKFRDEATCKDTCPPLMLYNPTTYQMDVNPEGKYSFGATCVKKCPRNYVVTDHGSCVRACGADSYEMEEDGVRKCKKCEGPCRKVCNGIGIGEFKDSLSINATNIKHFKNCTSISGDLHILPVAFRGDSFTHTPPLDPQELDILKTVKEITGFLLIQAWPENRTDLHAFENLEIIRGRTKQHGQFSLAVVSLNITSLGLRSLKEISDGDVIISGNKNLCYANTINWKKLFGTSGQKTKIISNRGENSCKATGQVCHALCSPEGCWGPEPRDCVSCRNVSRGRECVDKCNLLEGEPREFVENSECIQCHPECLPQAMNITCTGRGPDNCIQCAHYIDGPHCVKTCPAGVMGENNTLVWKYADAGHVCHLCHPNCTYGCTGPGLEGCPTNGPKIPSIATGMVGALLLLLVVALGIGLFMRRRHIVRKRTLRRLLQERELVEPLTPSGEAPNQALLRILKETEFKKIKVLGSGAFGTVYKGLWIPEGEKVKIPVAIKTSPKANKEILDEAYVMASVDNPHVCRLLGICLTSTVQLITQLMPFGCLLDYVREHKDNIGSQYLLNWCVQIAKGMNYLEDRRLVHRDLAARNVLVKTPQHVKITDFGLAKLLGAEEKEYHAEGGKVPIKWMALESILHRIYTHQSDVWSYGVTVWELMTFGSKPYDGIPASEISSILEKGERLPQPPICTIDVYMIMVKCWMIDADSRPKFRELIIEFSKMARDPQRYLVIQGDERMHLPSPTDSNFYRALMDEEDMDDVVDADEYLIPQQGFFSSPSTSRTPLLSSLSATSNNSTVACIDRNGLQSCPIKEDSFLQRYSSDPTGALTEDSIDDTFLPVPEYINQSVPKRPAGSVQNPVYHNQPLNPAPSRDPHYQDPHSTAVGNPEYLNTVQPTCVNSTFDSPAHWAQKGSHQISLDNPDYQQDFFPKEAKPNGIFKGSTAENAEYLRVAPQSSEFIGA
Chain of IGF1R (P08069 31-1367, species assumed): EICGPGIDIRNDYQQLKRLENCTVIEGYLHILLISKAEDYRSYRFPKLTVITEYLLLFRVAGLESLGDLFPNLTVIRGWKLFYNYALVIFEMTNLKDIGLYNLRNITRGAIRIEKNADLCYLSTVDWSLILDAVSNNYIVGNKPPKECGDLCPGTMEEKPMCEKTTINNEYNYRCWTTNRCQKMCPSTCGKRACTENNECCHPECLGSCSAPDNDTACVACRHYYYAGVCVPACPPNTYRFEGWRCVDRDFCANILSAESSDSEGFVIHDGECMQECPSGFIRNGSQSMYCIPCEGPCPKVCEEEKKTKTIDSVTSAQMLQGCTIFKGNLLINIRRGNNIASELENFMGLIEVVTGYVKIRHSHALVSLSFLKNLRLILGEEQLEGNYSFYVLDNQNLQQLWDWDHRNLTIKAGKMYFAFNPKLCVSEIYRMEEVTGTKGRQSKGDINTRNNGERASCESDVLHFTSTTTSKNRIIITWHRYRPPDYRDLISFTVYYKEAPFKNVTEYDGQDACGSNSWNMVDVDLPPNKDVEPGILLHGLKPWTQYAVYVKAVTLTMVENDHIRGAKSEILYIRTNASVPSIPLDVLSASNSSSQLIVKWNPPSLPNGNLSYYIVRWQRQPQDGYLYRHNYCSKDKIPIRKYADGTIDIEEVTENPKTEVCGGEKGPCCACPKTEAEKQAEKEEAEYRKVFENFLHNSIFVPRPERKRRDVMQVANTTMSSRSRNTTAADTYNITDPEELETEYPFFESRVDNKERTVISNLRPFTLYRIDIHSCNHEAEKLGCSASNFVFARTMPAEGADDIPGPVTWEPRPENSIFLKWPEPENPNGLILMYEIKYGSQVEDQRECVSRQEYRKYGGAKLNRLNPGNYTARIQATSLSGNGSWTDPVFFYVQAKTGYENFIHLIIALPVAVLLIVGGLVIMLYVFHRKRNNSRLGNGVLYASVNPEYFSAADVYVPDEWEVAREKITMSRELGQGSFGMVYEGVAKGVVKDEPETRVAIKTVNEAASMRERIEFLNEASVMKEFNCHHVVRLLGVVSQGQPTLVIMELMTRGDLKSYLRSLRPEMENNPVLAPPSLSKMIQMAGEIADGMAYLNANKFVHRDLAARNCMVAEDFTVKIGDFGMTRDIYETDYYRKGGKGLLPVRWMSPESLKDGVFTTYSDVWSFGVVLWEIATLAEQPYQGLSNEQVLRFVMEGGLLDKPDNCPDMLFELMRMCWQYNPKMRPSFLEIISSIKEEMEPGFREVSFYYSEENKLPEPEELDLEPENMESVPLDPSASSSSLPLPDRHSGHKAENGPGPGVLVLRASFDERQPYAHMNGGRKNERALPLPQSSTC
Chain of EGFR Wt (P00533 25-1210): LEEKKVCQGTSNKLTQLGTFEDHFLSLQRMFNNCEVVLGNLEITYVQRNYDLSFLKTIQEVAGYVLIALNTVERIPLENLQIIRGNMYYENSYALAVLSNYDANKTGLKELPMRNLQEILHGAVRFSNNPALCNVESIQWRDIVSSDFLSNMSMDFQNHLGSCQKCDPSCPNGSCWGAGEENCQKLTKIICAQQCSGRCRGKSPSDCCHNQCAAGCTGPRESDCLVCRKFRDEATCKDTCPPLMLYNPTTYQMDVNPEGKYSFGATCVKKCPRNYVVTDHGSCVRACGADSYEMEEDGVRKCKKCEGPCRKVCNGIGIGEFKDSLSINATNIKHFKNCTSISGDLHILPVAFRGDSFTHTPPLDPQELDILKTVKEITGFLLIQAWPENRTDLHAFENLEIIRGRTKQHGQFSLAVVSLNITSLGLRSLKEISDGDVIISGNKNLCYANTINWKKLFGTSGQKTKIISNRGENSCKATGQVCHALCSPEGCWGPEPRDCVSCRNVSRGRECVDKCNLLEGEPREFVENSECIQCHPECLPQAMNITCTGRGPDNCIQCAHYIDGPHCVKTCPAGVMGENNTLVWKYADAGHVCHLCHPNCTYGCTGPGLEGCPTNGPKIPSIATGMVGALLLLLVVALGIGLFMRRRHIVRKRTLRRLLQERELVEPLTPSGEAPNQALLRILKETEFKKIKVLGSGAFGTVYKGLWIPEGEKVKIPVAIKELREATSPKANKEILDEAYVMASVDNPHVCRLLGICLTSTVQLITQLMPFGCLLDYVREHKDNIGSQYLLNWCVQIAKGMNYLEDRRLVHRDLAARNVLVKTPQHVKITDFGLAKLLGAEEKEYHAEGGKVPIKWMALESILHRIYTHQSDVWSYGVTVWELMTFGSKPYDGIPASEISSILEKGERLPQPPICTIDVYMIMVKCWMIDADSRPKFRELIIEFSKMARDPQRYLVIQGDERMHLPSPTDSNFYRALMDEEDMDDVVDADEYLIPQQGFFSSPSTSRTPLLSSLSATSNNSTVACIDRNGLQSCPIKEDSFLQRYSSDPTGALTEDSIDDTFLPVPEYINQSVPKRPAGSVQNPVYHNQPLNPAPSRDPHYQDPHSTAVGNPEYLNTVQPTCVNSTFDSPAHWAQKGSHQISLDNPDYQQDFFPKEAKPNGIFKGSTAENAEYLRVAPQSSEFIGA
T1 sequence (P00533 696-1210 T790M/L858R): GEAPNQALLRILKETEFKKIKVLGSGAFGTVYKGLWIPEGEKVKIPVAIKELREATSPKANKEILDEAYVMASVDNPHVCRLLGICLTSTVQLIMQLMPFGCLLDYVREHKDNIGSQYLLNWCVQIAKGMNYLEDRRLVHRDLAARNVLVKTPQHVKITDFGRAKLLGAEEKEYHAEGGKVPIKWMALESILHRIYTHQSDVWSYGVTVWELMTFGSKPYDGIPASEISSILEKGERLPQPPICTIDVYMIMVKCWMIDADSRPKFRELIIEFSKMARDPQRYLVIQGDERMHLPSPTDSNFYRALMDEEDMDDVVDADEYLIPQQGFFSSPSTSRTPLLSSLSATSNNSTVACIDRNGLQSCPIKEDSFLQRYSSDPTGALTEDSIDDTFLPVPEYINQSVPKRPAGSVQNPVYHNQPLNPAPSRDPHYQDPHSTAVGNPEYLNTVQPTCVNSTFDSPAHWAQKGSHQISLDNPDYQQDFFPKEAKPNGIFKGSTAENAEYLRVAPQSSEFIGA

SMILES | IC50 [1] [nM] | IC50 [2] [nM] | IC50 [3] [nM] | IC50 [4] [nM] | IC50 [5] [nM] | IC50 [6] [nM] | IC50 [7] [nM] | IC50 [8] [nM] | IC50 [9] [nM]
C=CC(=O)N[C@@H]1CN(c2nc(Nc3cn(C)nc3OC)c3ncc(C)n3n2)C[C@H]1F [Example 1, N-((3R,4R)-4-fluoro-1-(4-((3-methoxy-1-methyl-1H-pyrazol-4-yl)amino)-7-methylimidazo[2,1-f][1,2,4]triazin-2-yl)pyrrolidin-3-yl)acrylamide] | ≤ 10 | ≥ 300 | ≥ 100 | < 50 | < 50 | ≤ 10 | ≤ 10 | ≤ 10 | ≥ 100
C=CC(=O)N[C@@H]1CN(c2nc(Nc3cn([C@H]4CCN(C)C4)nc3OC)c3ncc(C)n3n2)C[C@H]1F [Example 2, N-((3R,4R)-4-fluoro-1-(4-((3-methoxy-1-((S)-1-methylpyrrolidin-3-yl)-1H-pyrazol-4-yl)amino)-7-methylimidazo[2,1-f][1,2,4]triazin-2-yl)pyrrolidin-3-yl)acrylamide] | ≤ 10 | 50 to 300 | ≥ 100 | < 50 | < 50 | ≤ 10 | ≤ 10 |  | ≥ 100
C=CC(=O)N[C@@H]1CN(c2nc(Nc3cn(C4CCN(C)CC4)nc3OC)c3ncc(C)n3n2)C[C@H]1F [Example 4, N-((3R,4R)-4-fluoro-1-(4-((3-methoxy-1-(1-methylpiperidin-4-yl)-1H-pyrazol-4-yl)amino)-7-methylimidazo[2,1-f][1,2,4]triazin-2-yl)pyrrolidin-3-yl)acrylamide] | ≤ 10 | 50 to 300 | ≥ 100 | < 50 | < 50 | ≤ 10 | ≤ 10 |  | ≥ 100

Continued, values first:

IC50 [1] [nM] | IC50 [2] [nM] | IC50 [3] [nM] | IC50 [4] [nM] | IC50 [5] [nM] | IC50 [6] [nM] | IC50 [7] [nM] | IC50 [8] [nM] | IC50 [9] [nM] | SMILES
≤ 10 | ≥ 300 | ≥ 100 | < 50 | 50 to 300 | ≤ 10 | ≤ 10 | ≤ 10 | ≥ 100 | C=CC(=O)N[C@@H]1CN(c2nc(Nc3cn(C)nc3OC)c3ncn(C45CC(C4)C5)c3n2)C[C@H]1F (racemic) [Example 6, N-((3R,4R)-1-(9-(bicyclo[1.1.1]pentan-1-yl)-6-((3-methoxy-1-methyl-1H-pyrazol-4-yl)amino)-9H-purin-2-yl)-4-fluoropyrrolidin-3-yl)acrylamide]
≤ 10 | 50 to 300 | ≥ 100 | < 50 | < 50 | ≤ 10 | ≤ 10 |  | ≥ 100 | C=CC(=O)N[C@@H]1CN(c2nc(Nc3cn(CCN(C)C)nc3OC)c3ncc(C)n3n2)C[C@H]1F [Example 5, N-((3R,4R)-1-(4-((1-(2-(dimethylamino)ethyl)-3-methoxy-1H-pyrazol-4-yl)amino)-7-methylimidazo[2,1-f][1,2,4]triazin-2-yl)-4-fluoropyrrolidin-3-yl)acrylamide]

From US20180201614A1, “BICYCLIC COMPOUNDS” (KALYRA PHARMACEUTICALS, INC., priority 2015, published 2018)
